Here are results for one molecule from patent US20240100027A1, “INHIBITION OF PROSTAGLANDIN DEGRADING ENZYME 15-PGDH TO IMPROVE JOINT STRUCTURE AND FUNCTION” (The Board of Trustees of the Leland Stanford Junior …, priority 2020, published 2024).

The test system of experiment [1] is chondrocytes in articular cartilage. The experiment can be described thus: Transmission electron microscopy of chondrocytes in articular cartilage, mitochondria per cell. It counts as in vivo, mice. The procedure: Transmission electron microscopy (TEM). Knee joints were fixed in Karnovsky's fixative composed of 2% Glutaraldehyde (EMS Cat #16000) and 4% paraformaldehyde (EMS Cat #15700) in 0.1M Sodium Cacodylate (EMS Cat #12300) pH 7.4 for 4 hours at 4° C. Joints were washed with cold PBS 3× and then decalcified in 14% EDTA solution in PBS for 3 days at 4° C. Samples were washed with PBS and placed in cold/aqueous 1% osmium tetroxide (EMS Cat #19100) on a rotator and allowed to warm to room temperature (RT) for 1 hr. Samples were washed 3× with ultrafiltered water followed by staining in 1% uranyl acetate at RT for 2 hours. Samples were then dehydrated in a series of ethanol washes for 30 minutes each at RT beginning at 50%, 70% and finally moved to 4° C. overnight. They were placed in cold 95% EtOH and allowed to warm to RT, changed to 100% 2×, then Propylene Oxide (PO) for 15 min. Samples were infiltrated with EMbed-812 resin (EMS Cat #14120) mixed 1:2, 1:1, and 2:1 with PO for 2 hrs each with leaving samples in 2:1 resin to PO overnight rotating at RT in the hood. The samples were then placed into EMbed-812 for 2 to 4 hours then placed into molds w/labels and fresh resin, orientated and placed into 65° C. oven overnight. […]

In another experiment the test system is knee joints of aged mice. The experiment can be described thus: Systemic i.p. treatment of aged mice: knee joint Safranin O histology and OARSI scoring. The class given is in vivo, mice C57BL/6. Conditions: 5 mg/kg i.p. daily for 1 month. The procedure:
Mice handling. All experiments and protocols were performed in accordance with the institutional guidelines of Stanford University and Administrative Panel on Laboratory Animal Care (APLAC). Aged (24-28 mo.) mice C57BL/6 were obtained from the US National Institute on Aging (NIA) aged colony.
(§1) Histology on mouse joints and human cartilage explants. Mouse joints were fixed in 4% paraformaldehyde overnight, dehydrated in ethanol and embedded in paraffin. Sagittal Sections (5 μm) of the mouse joints were cut by the Histoserv, Inc (Germantown, MD). Cartilage histology was performed by Safranin O (Saf O) staining as previously reported (Smeriglio et al., 2020, Sci Transi. Med. 12:eaax2332). Joints were assessed through blinded grading with the OARSI scoring system. Briefly, sections of mouse joints were stained with Safranin O, and cartilage degeneration was evaluated by assigning numbers 0 to 4 for increasing depth of cartilage degeneration (OARSI scoring system). For the summit scores, five regions were summed.
SW was previously extensively characterized as a specific inhibitor of 15-PGDH in vitro (ki of 0.1 nM).

The target of another experiment is 15-PGDH (Mus musculus, UniProt Q8VCC1). Conditions: aged muscles, one month of daily intraperitoneal treatment, cited from earlier work.
For experiment [2], the system named is OA knee joints of adult mice. The experiment in a line: Tibia loading (ACL rupture) post-traumatic OA in adult mice, intra-articular injections: Safranin O histology and OARSI scoring. The class given is in vivo, mice C57BL/6. Conditions: tibial compression OA, intra-articular twice a week for 4 weeks.
Excerpt: Tibia loading to induce osteoarthritis in young mice. Briefly, mice were anesthetized using 2.5% isoflurane inhalation under 4 L/min of oxygen. The right tibia was positioned vertically, with the ankle upward and the knee downward in deep flexion between loading cups. Using a material testing machine (Instron ElectroPulse E1000), axial compression was applied through the knee via the upper cup, while the lower cup was fixed and linked to the load cell. The ACL tear was confirmed by the release of compressive force during compression. Mice were allowed to progress for 6 weeks after loading (n=8 for each group). Contralateral left limb served as a non-loaded control. Mice blood serum was collected via retro-orbital bleeding to do multiplex autoantibody assay. Mice were sacrificed by cervical dislocation and knee joint were collected for assessment.
as §1
To test whether 15-PGDH inhibition would be protective in younger, adult mice upon induction of OA, OA was induced in young, adult mice (3 months old) by application of tibial compression on the mouse knee leading to anterior crucial ligament (ACL) rupture. This injury model recapitulates ACL injury frequently observed in human patients. After 1 week of injury, local intra-articular injections of vehicle or SW were given twice a week for 4 weeks. […]

Sequence of 15-PGDH (Q8VCC1 whole entry): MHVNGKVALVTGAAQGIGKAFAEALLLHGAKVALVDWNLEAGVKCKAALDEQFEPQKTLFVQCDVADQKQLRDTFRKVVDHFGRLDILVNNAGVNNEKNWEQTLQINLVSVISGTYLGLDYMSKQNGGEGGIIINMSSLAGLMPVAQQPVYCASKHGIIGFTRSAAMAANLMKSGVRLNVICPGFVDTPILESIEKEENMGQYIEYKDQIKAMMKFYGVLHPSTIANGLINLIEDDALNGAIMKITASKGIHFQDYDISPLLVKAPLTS

Consider `CCCC[S+]([O-])c1sc2nc(-c3cccs3)cc(-c3ccccc3)c2c1N` (stereo not shown) [SW033291, 2-(butylsulfinyl)-4-phenyl-6-(thiophen-2-yl)thieno[2,3-b]pyridin-3-amine], for which, in experiment [1] (aged cartilage, SW treated vs vehicle treated), the “number of mitochondria per cell (TEM images)” value is reported as “significant increase”. Besides, in experiment [1] (aged chondrocytes, SW treatment, compared with young cartilage), the “mitochondria per cell, quantification with Image J” value was “restoring the mitochondria number in aged chondrocytes to the level of young cartilage”. Moreover, in the experiment with knee joints of aged mice, the “cartilage structure (safranin O staining of knee joints)” value is “improved cartilage structure with increased thickness, GAG staining and smoother cartilage surface”. In the experiment with knee joints of aged mice (vs control), the “OARSI Maximum score” value is reported as “significantly decreased” and the “OARSI Summit score” value was “significantly decreased”. Also, at 15-PGDH (LC-MS/MS), the “levels of PGE2 and PGD2” value was “concomitant increase”. Moreover, the 15-PGDH specific activity result on 15-PGDH was “significantly reduced”. In addition, the “GAG staining and cartilage degradation (Safranin O)” value in experiment [2] (3-month-old mice, 6 weeks) is “higher GAG staining and reduced cartilage degradation”. In experiment [2] (vs vehicle), the “OARSI Maximum score” value is listed as “significantly decreased” and the “OARSI Summit score” value was “significantly decreased”.
